Converted amounts (≈) assume the structure as drawn.
How the values were obtained:
[1] = system: MRSA, CA-MRSA and MSSA of Staphylococcus aureus; test: MIC measurement, Test Example 4 (MRSA, CA-MRSA and MSSA strains); type: cell-based
Procedure: (§1) Each of the bacterial strains listed in Table 1-1 was shake-cultured at 37° C. overnight in 4 mL of a medium (Tryptical Soy Broth: TSB, product of Becton Dickinson and Company). FDA209P was used as a control.
(§2) After completion of culturing, the resultant culture was suspended in a cation-adjusted Mueller Hinton Broth (CAMHB, product of Becton Dickinson and Company). Then, the obtained bacterial culture was adjusted in absorbance with the CAMHB so that the absorbance at 578 nm of the bacterial culture was adjusted to 0.3 measured by an absorption spectrometer. In addition, the resultant bacterial culture was 500-fold diluted with the CAMHB.
(§3) Each of the 500-fold diluted, pre-cultured bacterial cultures was added at 50 μL/well to the CAMHB containing the quinolones and the nybomycins at various concentrations (50 μL/well), followed by statically culturing at 37° C. overnight.
(§4) After completion of culturing, the growth of the bacteria was visually determined based on turbidity to measure MIC in each bacterial strain.
Glycopeptides, imipenem, quinolones and nybomycins were studied for antibacterial activity against the bacterial strains listed in Table 2-1; i.e., MRSA, CA-MRSA and MSSA of Staphylococcus aureus.

Enterococcus faecalis = test: MIC measurement, Test Example 6 (enterococcus); type: cell-based
Procedure: as §1, §2, §3, §4
Quinolones and nybomycins were evaluated for antibacterial activity against Enterococcus faecalis shown in Table 6, wherein the other strains than NCTC12201 and NCTC12203 were subdivided from Shionogi & Co., Ltd (note that these strains are available also from the Department of Bacteriology, Juntendo University). The NCTC strains are both vancomycin-resistant E. faecalis and available from the National Collection of Type Cultures (NCTC).

[2] = system: methicillin-susceptible S. aureus (MSSA), MRSA and mutants thereof; test: MIC measurement, Test Example 3 (MSSA, MRSA and sequential gyrA/grlA quinolone-resistant mutants); type: cell-based, Staphylococcus aureus
From the text: That is, the first-step quinolone-resistant mutants are bacterial strains which are the same as their parent strains (clinical isolates) except that the genes shown in the corresponding parts of Table 1-1 are mutated. The second-step quinolone-resistant mutants are bacterial strains which are the same as the first-step quinolone-resistant mutants except that the genes shown in the corresponding parts of Table 1-1 are further mutated. The third-step quinolone-resistant mutants are bacterial strains which are the same as the second-step quinolone-resistant mutants except that the genes shown in the corresponding parts of Table 1-1 are further mutated. The fourth-step quinolone-resistant strain is a bacterial strain which is the same as the third-step quinolone-resistant mutant bacteria except that the gene shown in the corresponding part of Table 1-1 is further mutated.
as §1, §2, §3, §4

Compound `Cl.O=C(O)c1cn(C2CC2)c2cc(N3CCNCC3)c(F)cc2c1=O` [CPFX, ciprofloxacin chloride] has an MIC ([1]; ISA12-1, MRSA) of 0.5 µg/mL, an MIC ([1]; ISA35-1, MRSA) of 4 µg/mL and an MIC ([1]; ISA51-1, MSSA) of 0.5 µg/mL. The MIC ([1]; ISA58-1, MRSA) was 0.5 µg/mL, the MIC ([1]; ISA73-1, MSSA) was 0.5 µg/mL and the MIC ([1]; KBSA34, MRSA) was 0.5 µg/mL. It also gave an MIC ([1]; KBSA72, MRSA) of 128 µg/mL, an MIC ([1]; KBSA96, MRSA) of 32 µg/mL and an MIC ([1]; KBSA171, MRSA) of 64 µg/mL. It also gave an MIC ([1]; KSA24, MRSA) of 32 µg/mL, an MIC ([1]; KSA31, MRSA) of 8 µg/mL and an MIC ([1]; KSA36, MRSA) of 128 µg/mL. The MIC ([1]; USA300 FPR3757, CA-MRSA) was 16 µg/mL, the MIC (Enterococcus faecalis; E. faecalis 36-15672, quinolone-susceptible enterococci) was 1 µg/mL and the MIC (Enterococcus faecalis; E. faecalis 36-15673, quinolone-susceptible enterococci) was 1 µg/mL. For the same compound, the MIC (Enterococcus faecalis; E. faecalis 36-15678, quinolone-susceptible enterococci) was 1 µg/mL, the MIC (Enterococcus faecalis; E. faecalis 36-15686, quinolone-resistant enterococci) was 128 µg/mL and the MIC (Enterococcus faecalis; E. faecalis 36-15688, quinolone-susceptible enterococci) was 1 µg/mL. For the same compound, the MIC (Enterococcus faecalis; E. faecalis 36-15694, quinolone-resistant enterococci) was 32 µg/mL, the MIC (Enterococcus faecalis; E. faecalis 36-15696, quinolone-susceptible enterococci) was 1 µg/mL and the MIC (Enterococcus faecalis; E. faecalis 36-15703, quinolone-resistant enterococci) was 32 µg/mL. It also gave an MIC (Enterococcus faecalis; E. faecalis 36-15716, quinolone-resistant enterococci) of 128 µg/mL, an MIC (Enterococcus faecalis; E. faecalis 36-15718, quinolone-susceptible enterococci) of 1 µg/mL and an MIC (Enterococcus faecalis; E. faecalis 36-15720, quinolone-susceptible enterococci) of 2 µg/mL. It also gave an MIC (Enterococcus faecalis; E. faecalis 36-15722, quinolone-resistant enterococci) of 64 µg/mL, an MIC (Enterococcus faecalis; E. faecalis 36-15726, quinolone-resistant enterococci) of 64 µg/mL and an MIC (Enterococcus faecalis; E. faecalis 36-15730, quinolone-susceptible enterococci) of 2 µg/mL. For the same compound, the MIC (Enterococcus faecalis; E. faecalis 36-15736, quinolone-susceptible enterococci) was 1 µg/mL, the MIC (Enterococcus faecalis; E. faecalis 36-15741, quinolone-susceptible enterococci) was 2 µg/mL and the MIC (Enterococcus faecalis; E. faecalis NCTC12201, vancomycin-resistant (VRE), quinolone-susceptible enterococci) was 1 µg/mL. The MIC (Enterococcus faecalis; E. faecalis NCTC12203, vancomycin-resistant (VRE), quinolone-susceptible enterococci) was 1 µg/mL, the MIC ([2]; MR5867-1, first-step quinolone-resistant mutant, grlA E84K) was 2 µg/mL and the MIC ([2]; MR5867-2, second-step mutant, further gyrA S84L) was 32 µg/mL. The MIC ([2]; MS5935-1, first-step quinolone-resistant mutant, grlA S80F) was 2 µg/mL, the MIC ([2]; MS5935-2, second-step mutant, further gyrA S84L) was 32 µg/mL and the MIC ([2]; MS5952-1, first-step quinolone-resistant mutant, grlA S80Y) was 2 µg/mL. For the same compound, the MIC ([2]; MS5952-2, second-step mutant, further gyrA S84L) was 8 µg/mL and the MIC ([2]; MS5952-3, third-step mutant, further grlA A116V) was 64 µg/mL.
For `C[C@@H](O)[C@H]1C(=O)N2C(C(=O)O)=C(SCCN=CN)C[C@H]12` [IPM, imipenem], the MIC ([1]; Staphylococcus aureus, ATCC 29213 / MRSA / MSSA, ATCC 29213, MSSA) was < 0.03 µg/mL, the MIC ([1]; Staphylococcus aureus, COL, MRSA) was 64 µg/mL (≈ 214 µM) and the MIC ([1]; Staphylococcus aureus, FDA209P / MRSA / MSSA, FDA209P, MSSA) was < 0.03 µg/mL. For the same compound, the MIC ([1]; Staphylococcus aureus, ISA12-1, MRSA) was 16 µg/mL (≈ 53.4 µM), the MIC ([1]; Staphylococcus aureus, ISA12-2, MRSA) was 16 µg/mL (≈ 53.4 µM) and the MIC ([1]; Staphylococcus aureus, ISA35-1, MRSA) was 1 µg/mL (≈ 3.34 µM). It also gave an MIC ([1]; Staphylococcus aureus, ISA37-1, MSSA) of 0.125 µg/mL (≈ 0.418 µM), an MIC ([1]; Staphylococcus aureus, ISA49-1, MSSA) of 0.25 µg/mL (≈ 0.835 µM) and an MIC ([1]; Staphylococcus aureus, ISA51-1, MSSA) of 0.25 µg/mL (≈ 0.835 µM). It also gave an MIC ([1]; Staphylococcus aureus, ISA56-3, MRSA) of 16 µg/mL (≈ 53.4 µM), an MIC ([1]; Staphylococcus aureus, ISA58-1, MRSA) of 0.125 µg/mL (≈ 0.418 µM) and an MIC ([1]; Staphylococcus aureus, ISA62-1, MRSA) of 2 µg/mL (≈ 6.68 µM). It also gave an MIC ([1]; Staphylococcus aureus, ISA73-1, MSSA) of 0.25 µg/mL (≈ 0.835 µM), an MIC ([1]; Staphylococcus aureus, KBSA32, MRSA) of 0.25 µg/mL (≈ 0.835 µM) and an MIC ([1]; Staphylococcus aureus, KBSA34, MRSA) of 0.25 µg/mL (≈ 0.835 µM). For the same compound, the MIC ([1]; Staphylococcus aureus, KBSA72, MRSA) was 0.125 µg/mL (≈ 0.418 µM), the MIC ([1]; Staphylococcus aureus, KBSA96, MRSA) was 0.25 µg/mL (≈ 0.835 µM) and the MIC ([1]; Staphylococcus aureus, KBSA171, MRSA) was 0.25 µg/mL (≈ 0.835 µM). The MIC ([1]; Staphylococcus aureus, KSA24, MRSA) was 0.5 µg/mL (≈ 1.67 µM), the MIC ([1]; Staphylococcus aureus, KSA31, MRSA) was 0.125 µg/mL (≈ 0.418 µM) and the MIC ([1]; Staphylococcus aureus, KSA36, MRSA) was 0.5 µg/mL (≈ 1.67 µM). The MIC ([1]; Staphylococcus aureus, MRSA / MSSA / NCTC 8325, NCTC 8325, MSSA) was ≤ 0.063 µg/mL, the MIC ([1]; Staphylococcus aureus, MRSA / MSSA / USA300, USA300 FPR3757, CA-MRSA) was 2 µg/mL (≈ 6.68 µM) and the MIC ([1]; Staphylococcus aureus, MW2, CA-MRSA) was 2 µg/mL (≈ 6.68 µM). For the same compound, the MIC ([1]; Staphylococcus aureus, N315, MRSA) was 8 µg/mL (≈ 26.7 µM).
